Results on seven compounds are retold here after patent US8530701B2, “High purity 2-[4-(3- OR 2-fluorobenzyloxy)benzylamino]propanamides and methods of use thereof” (priority 2007, dated 2013).

One data set deals with T1, CYP3A4 (Homo sapiens, UniProt P08684).
T1 construct: purchased Gentest
Briefly: Cytochrome P450 assay (Gentest Kit), CYP3A4. In kind it is in vitro ADME. On the procedure:
(§1) Inhibition of the five most important Cytochrome P450 isoforms (CYP1A2, CYP2C9, CYP2C19, CYP2D6 and CYP3A4), involved in drug metabolism, was measured using specific substrates that become fluorescent upon CYP metabolism (Gentest Kit assay).
(§2) Compounds were tested in a 96-well plate containing incubation/NADPH regenerating buffer. Specific human recombinant isoenzymes and substrates were added and incubated at 37° C. for 15 min for CYP1A2/CEC, 40 min for CYP2E1/MFC, 45 min for CYP2C9/MFC and 30 min for the others CYP450.
(§3) The specific substrates were the following: 3-cyano-7-ethoxycoumarin (CYP2C19 and CYP1A2), • 7-methoxy-4-trifluoromethylcoumarin (CYP2C9), • 3[2(N,N-diethyl-N-methylamino)ethyl]-7-methoxy-4-methylcoumarin (CYP2D6) • benzylphenylcoumarin (CYP3A4)

A further data set concerns the target T2, CYP2C19 (Homo sapiens, UniProt P33261).
T2 construct: purchased Gentest
Briefly: Cytochrome P450 assay (Gentest Kit), CYP2C19. In kind it is in vitro ADME. Here is the method:
as §1, §2, §3

Data set [1] concerns the target T3, recombinant HERG channel (Homo sapiens, UniProt Q12809). The experiment in a line: HERG current in transfected CHO cell lines.
Description: (§10) The inhibition of HERG current was tested in CHO cells stably expressing recombinant HERG channel.
(§11) To evaluate the effect of the test compounds on HERG currents, cells were clamped at −80 mV, depolarised to 0 mV for 5 seconds allowing activation of HERG current and repolarised to −50 mV during 5 seconds allowing HERG tail current to deactivate. This procedure was repeated at a frequency of 0.06 Hz. The current amplitude upon repolarisation (HERG tail current) was measured before and after exposure to the test compound.
(§12) Inhibition of current was calculated as the difference between the amplitude of HERG tail current amplitude measured at the end of external bath perfusion period and HERG tail current measured at the end of test compound perfusion period (when steady-state effect is reached) divided by control HERG tail current.
(§13) Drug concentration-inhibition curves were obtained by plotting tonic blocks versus drug concentrations. Dose-response curves were fitted to the tonic block data, according to the logistic equation: y=A2+(A1−A2)/[1+(x/IC50)^p].
The next data set addresses T4, CYP2C9 (Homo sapiens, UniProt P11712).
T4 construct: purchased Gentest
Briefly: Cytochrome P450 assay (Gentest Kit), CYP2C9. In kind it is in vitro ADME. Here is the method: as §1, §2, §3

For another data set, the target named is T5, CYP2D6 (Homo sapiens, UniProt P10635).
T5 construct: purchased Gentest
Briefly: Cytochrome P450 assay (Gentest Kit), CYP2D6. It is filed as in vitro ADME. Here is the method:
as §1, §2, §3

Data set [2] in a line: Cytotoxicity assay in human neuroblastoma cell line SH-SY-5Y. It is filed as cell-based. The following applies: human, SH-SY-5Y neuroblastoma cells; SH-SY-5Y, 24 hours incubation, Alamar Blue; concentration inducing 50% of mortality. On the procedure: (§4) At time zero, the cells were seeded at 1.10^4/cm^2 in 96 well plates in DMEM growth medium+10% heat inactivated FBS+2 mM 1-Glutamine+100 U/mL-100 μg/mL Penicillin/Streptomycin.
(§5) After 72 hours at subconfluent phase of growth, the medium was removed and cells were incubated for 24 hours at 37° C. in 180 μL of neurobasal medium+2 mM 1-Glutamine (Life Techonologies) with or without test compounds (20 μL, at least 5 concentrations in triplicate).
(§6) At the end of incubation, 20 μL of Alamar Blue dye (AlamarBlue™ Assay Kit, Promega) were directly added to the cell medium.
(§7) Four hours after, the cytotoxicity was assessed by measuring the fluorescence at 530 nm excitation and 595 nm emission using Tecan Spectrafluor plate reader.
(§8) Before and at the end of the treatment, the cultures were monitored microscopically by an Olympus IX70 inverted light microscope matched to an Image Analyzer (Image Pro Plus, 5.1) to evaluate the cellular morphology.
(§9) Results are expressed in Table 1 as concentration inducing 50% of mortality.

The target of another data set is T6, CYP1A2 (Homo sapiens, UniProt P05177).
T6 construct: purchased Gentest
T6 sequence (P05177 1-516): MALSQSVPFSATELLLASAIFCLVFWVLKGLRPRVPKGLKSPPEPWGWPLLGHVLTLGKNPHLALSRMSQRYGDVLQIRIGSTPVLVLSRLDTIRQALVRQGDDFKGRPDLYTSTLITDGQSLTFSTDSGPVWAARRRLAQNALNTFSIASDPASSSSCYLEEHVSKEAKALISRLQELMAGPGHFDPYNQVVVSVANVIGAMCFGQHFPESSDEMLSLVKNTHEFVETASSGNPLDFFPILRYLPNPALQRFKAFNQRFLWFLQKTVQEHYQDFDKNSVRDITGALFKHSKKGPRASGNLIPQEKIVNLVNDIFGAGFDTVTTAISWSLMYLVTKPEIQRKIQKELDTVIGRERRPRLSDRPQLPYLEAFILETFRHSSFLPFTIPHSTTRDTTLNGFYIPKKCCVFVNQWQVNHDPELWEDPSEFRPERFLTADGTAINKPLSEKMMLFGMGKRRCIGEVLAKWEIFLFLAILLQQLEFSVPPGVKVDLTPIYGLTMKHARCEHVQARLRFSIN
Briefly: in vitro. In kind it is in vitro ADME. On the procedure:
as §1, §2, §3

For data set [3], the target named is T3, recombinant HERG channel.
Description: as §10, §11, §12, §13
Data set [4] has as its system human neuroblastoma cell line SH-SY-5Y. Briefly: Cytotoxicity assay in human neuroblastoma cell line SH-SY-5Y. In kind it is cell-based. Here is the method: as §4, §5, §6, §7, §8, §9
The next data set relates to Male CD1 mice. It is filed as in vivo. On the procedure:
The maximal electroshock test (MES) is used commonly in the screening of anti-epileptic drugs in rodent models.
Animals and Apparatus: Male CD1 mice weighing 25 g were used. […] The stimulus was delivered intra-aurally through clip electrodes in mice (0.7 seconds of a 40 mA shock, with a pulse train of 80 Hz having a pulse duration of 0.4 ms). The acute effect of compounds administered intraperitoneally or orally 15-60 min before MES induction were examined and compared with a vehicle control group. Ten mice were studied per group. Complete suppression of the hindlimb tonic extensor component of seizures was taken as evidence of anticonvulsant activity.
The compounds of the invention were administered orally or intraperitoneally at the doses of 3-30 mg/kg.
The results are expressed in Tables 3 and 4 as % of protection.

Where [5] appears, read: Table 1, human recombinant isoenzyme, substrate benzylphenylcoumarin, read-out: CYP3A4 IC50.
Setting [6] is: human recombinant isoenzyme, substrate 3-cyano-7-ethoxycoumarin, read-out: CYP2C19 IC50.
Setting [7] is: human recombinant isoenzyme, substrate 7-methoxy-4-trifluoromethylcoumarin, read-out: CYP2C9 IC50.
The mark [8] stands for this setting: human recombinant isoenzyme, fluorescent substrate, read-out: CYP2D6 IC50.

Where two headings read alike, the source gives them in different places.

T2 sequence (P33261 whole entry): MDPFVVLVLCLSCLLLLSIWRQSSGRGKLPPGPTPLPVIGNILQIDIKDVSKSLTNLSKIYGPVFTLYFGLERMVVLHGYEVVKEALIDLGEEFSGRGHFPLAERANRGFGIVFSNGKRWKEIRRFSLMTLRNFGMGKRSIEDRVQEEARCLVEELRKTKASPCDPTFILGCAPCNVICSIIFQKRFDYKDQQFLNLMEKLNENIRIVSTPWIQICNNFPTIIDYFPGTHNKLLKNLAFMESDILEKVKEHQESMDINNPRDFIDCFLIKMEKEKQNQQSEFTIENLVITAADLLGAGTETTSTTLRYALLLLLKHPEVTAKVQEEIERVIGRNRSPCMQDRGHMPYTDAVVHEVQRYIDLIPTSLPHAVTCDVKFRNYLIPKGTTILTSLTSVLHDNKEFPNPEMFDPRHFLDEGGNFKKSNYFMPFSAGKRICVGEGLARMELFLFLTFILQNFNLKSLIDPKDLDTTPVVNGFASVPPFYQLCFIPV
T3 sequence (Q12809 whole entry): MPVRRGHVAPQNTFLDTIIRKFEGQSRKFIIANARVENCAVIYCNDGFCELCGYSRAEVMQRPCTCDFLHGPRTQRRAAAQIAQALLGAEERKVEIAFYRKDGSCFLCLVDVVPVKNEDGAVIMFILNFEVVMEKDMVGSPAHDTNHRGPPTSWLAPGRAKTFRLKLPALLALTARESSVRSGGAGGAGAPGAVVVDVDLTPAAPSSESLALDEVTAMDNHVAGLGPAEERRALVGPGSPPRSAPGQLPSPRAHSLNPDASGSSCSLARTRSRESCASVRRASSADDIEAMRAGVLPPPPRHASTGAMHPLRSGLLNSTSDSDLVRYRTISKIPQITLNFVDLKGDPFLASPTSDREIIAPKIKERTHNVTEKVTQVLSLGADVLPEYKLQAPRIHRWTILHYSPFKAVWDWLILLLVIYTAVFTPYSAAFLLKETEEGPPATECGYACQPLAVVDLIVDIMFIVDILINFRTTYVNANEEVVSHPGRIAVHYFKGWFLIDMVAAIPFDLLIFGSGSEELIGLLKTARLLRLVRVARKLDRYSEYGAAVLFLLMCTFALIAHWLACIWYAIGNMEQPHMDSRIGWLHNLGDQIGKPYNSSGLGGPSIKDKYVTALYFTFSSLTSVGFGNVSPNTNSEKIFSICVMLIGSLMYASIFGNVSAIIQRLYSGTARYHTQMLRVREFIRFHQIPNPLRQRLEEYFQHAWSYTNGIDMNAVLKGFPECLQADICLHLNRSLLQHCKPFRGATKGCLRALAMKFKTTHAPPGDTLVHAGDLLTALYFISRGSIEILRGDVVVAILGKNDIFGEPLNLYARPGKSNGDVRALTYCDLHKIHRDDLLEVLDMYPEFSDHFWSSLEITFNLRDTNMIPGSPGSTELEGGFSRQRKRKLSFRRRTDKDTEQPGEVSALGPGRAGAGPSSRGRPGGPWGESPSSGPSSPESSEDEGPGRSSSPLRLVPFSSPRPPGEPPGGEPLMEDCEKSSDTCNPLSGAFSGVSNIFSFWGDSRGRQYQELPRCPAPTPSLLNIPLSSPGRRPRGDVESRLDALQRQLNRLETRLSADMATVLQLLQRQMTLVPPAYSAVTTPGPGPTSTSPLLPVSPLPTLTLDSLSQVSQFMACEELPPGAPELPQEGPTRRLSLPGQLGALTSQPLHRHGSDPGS
T5 sequence (P10635 whole entry): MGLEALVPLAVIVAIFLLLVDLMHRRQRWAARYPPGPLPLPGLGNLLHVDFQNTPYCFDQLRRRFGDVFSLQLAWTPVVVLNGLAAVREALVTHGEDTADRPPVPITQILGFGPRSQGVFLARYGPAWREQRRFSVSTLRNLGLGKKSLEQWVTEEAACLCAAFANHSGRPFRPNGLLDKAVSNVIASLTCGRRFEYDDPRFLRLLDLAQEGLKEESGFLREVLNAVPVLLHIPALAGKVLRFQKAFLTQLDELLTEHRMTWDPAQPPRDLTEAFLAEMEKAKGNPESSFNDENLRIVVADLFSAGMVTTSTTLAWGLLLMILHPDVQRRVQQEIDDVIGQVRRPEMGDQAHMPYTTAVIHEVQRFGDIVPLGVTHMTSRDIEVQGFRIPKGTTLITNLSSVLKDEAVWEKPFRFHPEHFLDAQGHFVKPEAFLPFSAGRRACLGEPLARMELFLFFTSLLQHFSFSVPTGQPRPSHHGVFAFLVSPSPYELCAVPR
T4 sequence (P11712 whole entry): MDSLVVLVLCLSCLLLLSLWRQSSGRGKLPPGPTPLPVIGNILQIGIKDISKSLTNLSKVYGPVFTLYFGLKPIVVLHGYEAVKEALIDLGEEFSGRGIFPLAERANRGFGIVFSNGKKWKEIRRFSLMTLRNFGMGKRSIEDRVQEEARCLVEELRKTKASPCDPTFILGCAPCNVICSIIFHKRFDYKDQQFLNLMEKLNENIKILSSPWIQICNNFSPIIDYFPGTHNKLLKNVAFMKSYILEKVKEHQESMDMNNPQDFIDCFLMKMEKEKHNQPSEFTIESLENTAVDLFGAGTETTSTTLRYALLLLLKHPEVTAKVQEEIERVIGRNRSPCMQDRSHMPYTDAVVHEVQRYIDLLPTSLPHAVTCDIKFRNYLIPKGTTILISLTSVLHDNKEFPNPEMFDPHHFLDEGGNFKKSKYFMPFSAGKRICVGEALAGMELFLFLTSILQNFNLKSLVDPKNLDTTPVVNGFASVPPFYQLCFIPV
T1 sequence (P08684 whole entry): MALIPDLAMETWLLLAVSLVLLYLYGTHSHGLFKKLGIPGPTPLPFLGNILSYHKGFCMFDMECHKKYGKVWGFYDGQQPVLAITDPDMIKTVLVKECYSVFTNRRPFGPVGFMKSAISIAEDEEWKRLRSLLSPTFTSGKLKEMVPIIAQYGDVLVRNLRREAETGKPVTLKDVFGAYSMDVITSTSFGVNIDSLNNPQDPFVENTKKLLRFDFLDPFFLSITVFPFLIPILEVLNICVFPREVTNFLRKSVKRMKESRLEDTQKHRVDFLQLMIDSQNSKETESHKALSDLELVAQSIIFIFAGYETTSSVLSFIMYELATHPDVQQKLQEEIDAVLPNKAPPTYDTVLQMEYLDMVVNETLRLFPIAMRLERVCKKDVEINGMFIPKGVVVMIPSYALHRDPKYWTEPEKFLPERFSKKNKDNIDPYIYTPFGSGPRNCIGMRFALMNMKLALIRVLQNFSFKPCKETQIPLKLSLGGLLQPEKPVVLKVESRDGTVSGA

Usually IC50 stands for the concentration needed to halve the response being measured. On to `C[C@@H](NCc1ccc(OCc2cccc(F)c2)c(Cc2cccc(F)c2)c1)C(N)=O` [Impurity (II′c), (R)-2-[3-(3-fluorobenzyl)-4-(3-fluorobenzyloxy)-benzylamino]propanamide methanesulfonate], for which the IC50 on CYP3A4 (setting [5]) is 0.09 µM; on CYP2C19 (setting [6]), 0.15 µM; at recombinant HERG channel [1], below 1 µM; on CYP2C9 (setting [7]), 4.94 µM; on CYP2D6 (setting [8]), 0.15 µM; on CYP1A2 (human recombinant isoenzyme, substrate 3-cyano-7-ethoxycoumarin, read-out: CYP1A2 IC50), 29.2 µM. Moreover, the 50% inhibitory concentration (IC50) at 24 h in data set [2] came to 8.81 µM.

Regarding `C[C@@H](NCc1ccc(OCc2ccccc2F)c(Cc2ccccc2F)c1)C(N)=O` (racemic) [Impurity (IId, II′d), (R,S)-2-[3-(2-fluorobenzyl)-4-(2-fluorobenzyloxy)-benzylamino]propanamide methanesulfonate], the concentration for half-maximal inhibition (IC50) is below 1 µM on recombinant HERG channel [3]; 0.06 µM against CYP3A4; 0.03 µM on CYP2C19; 4.96 µM on CYP2C9; 1.19 µM against CYP2D6; 14.3 µM in [4]. Further, the midpoint of inhibition at CYP1A2, the IC50, lay at 39.4 µM.

In the case of `C[C@@H](NCc1ccc(OCc2ccccc2F)c(Cc2ccccc2F)c1)C(N)=O` [Impurity (II′d), (R)-2-[3-(2-fluorobenzyl)-4-(2-fluorobenzyloxy)-benzylamino]propanamide methanesulfonate], the IC50 at CYP3A4 (setting [5]) was 0.07 µM; on CYP2C19 (setting [6]) it was 0.03 µM; on recombinant HERG channel [1], below 1 µM; on CYP2C9 (setting [7]), 4.34 µM; at CYP2D6 (setting [8]), 0.62 µM. In data set [2], this compound displayed a 50% inhibitory concentration (IC50) at 24 h of 11.5 µM. Moreover, the half-maximal inhibitory concentration (IC50) at 15 min at CYP1A2 (recombinant human CYP1A2, probe 3-cyano-7-ethoxycoumarin, human recombinant isoenzyme, substrate 3-cyano-7-ethoxycoumarin) was above 40 µM.

For `CS(=O)(=O)O.C[C@H](NCc1ccc(OCc2cccc(F)c2)c(Cc2cccc(F)c2)c1)C(N)=O` [Impurity (IIc), (S)-2-[3-(3-fluorobenzyl)-4-(3-fluorobenzyloxy)-benzylamino]propanamide methanesulfonate], the MES dead/live in the data set on Male CD1 mice (mice, 3 mg/kg ip) is 5/10; in the data set on Male CD1 mice (mice, 10 mg/kg ip), 4/10; in the data set with Male CD1 mice (mice, 30 mg/kg ip), 4/10. For the same compound, in the data set with Male CD1 mice (mice, ip, from 3 mg/kg), the “pharmacological activity, i.e. protection from convulsions, in MES test (in words)” value is given as “without any pharmacological activity”. In addition, the “mortality in the mice MES test (in words)” value in the data set on Male CD1 mice (starting from 3 mg/kg ip) is on record as “increases”.

For the compound `CS(=O)(=O)O.C[C@H](NCc1ccc(OCc2ccccc2F)c(Cc2ccccc2F)c1)C(N)=O` [Impurity (IId), (S)-2-[3-(2-fluorobenzyl)-4-(2-fluorobenzyloxy)-benzylamino]propanamide methanesulfonate], the “MES dead/live” value is 0/10 in the data set with Male CD1 mice (mice, 10 mg/kg p.o.) and 0/10 with Male CD1 mice (mice, 20 mg/kg p.o.). Moreover, the “protection of mice from convulsions in MES test (in words)” value in the data set with Male CD1 mice (p.o. at 10 and 20 mg/kg, compared with same doses of ralfinamide methanesulfonate) is “doesn't protect mice from convulsions”.

As to `C[C@@H](NCc1ccc(OCc2cccc(F)c2)c(Cc2cccc(F)c2)c1)C(N)=O` (racemic) [Impurity (IIc, II′c), (R,S)-2-[3-(3-fluorobenzyl)-4-(3-fluorobenzyloxy)-benzylamino]propanamide methanesulfonate], the IC50 at recombinant HERG channel [3] is below 1 µM; at CYP3A4, 0.06 µM; against CYP2C19 it was 0.17 µM; against CYP2C9, 5.57 µM; at CYP2D6, 0.31 µM; in data set [4] it was 11.8 µM. The compound also had a 50% inhibitory concentration (IC50) against CYP1A2 of 28 µM.

As to `CS(=O)(=O)O.C[C@H](NCc1ccc(OCc2cccc(F)c2)cc1)C(N)=O` [Safinamide methanesulfonate (Ic), (S)-2-[4-(3-fluorobenzyloxy)benzylamino]propanamide methanesulfonate, reference compound], the MES % protection with Male CD1 mice (mice, 3 mg/kg ip) was found to be 50%; in the data set on Male CD1 mice (mice, 10 mg/kg ip), 100%; in the data set with Male CD1 mice (mice, 30 mg/kg ip), 100%.
